# In ChEMBL document CHEMBL3244037, “6-Aryl-4H-s-triazolo[4,3-a][1,4]benzodiazepines. Influence of 1-substitution on pharmacological activity” (J Med Chem, 1979):
# How the values were obtained:
# [1] = tested on: Mus musculus; experiment: Potentiation of apomorphine-induced gnawing in ip dosed albino CF1 mouse; type: organism-based
# [2] = tested on: Mus musculus; experiment: Inhibition of oxotremorine-induced hypothermia in ip dosed albino CF1 mouse; type: functional
# [3] = tested on: Mus musculus; experiment: […] activity in ip dosed albino CF1 mouse assessed as potentiation of gamma-butyrolactone-induced sleep; type: functional
# [4] = tested on: Mus musculus; experiment: Potentiation of yohimbine toxicity in ip dosed aggregated albino CF1 mouse; type: organism-based
# [5] = tested on: Mus musculus; experiment: Hypothermic activity in ip dosed albino CF1 mouse assessed as effect on body temperature measured after 45 mins; type: functional; conditions: 0.75 h
# [6] = tested on: Mus musculus; experiment: Inhibition of apomorphine-induced cage climbing in ip dosed albino CF1 mouse compound administered prior to challenge measured for 5 mins after 5 mins of challenge; type: functional
# [7] = tested on: Mus musculus; experiment: Anticonvulsant activity in ip dosed albino CF1 mouse assessed as inhibition of bicucullin-induced tonic extensor convulsions; type: functional
# [8] = tested on: Mus musculus; experiment: Inhibition of amphetamine aggregation toxicity in ip dosed albino CF1 mouse compound administered 1 hr prior to challenge measured after 2 hrs; type: functional
# [9] = tested on: Mus musculus; experiment: Reduction of hypoxic stress in ip dosed albino CF1 mouse assessed as prolongation of hypoxic survival time; type: functional
# [10] = tested on: Mus musculus; experiment: Anticonvulsant activity in ip dosed albino CF1 mouse assessed as protection against pentylenetetrazole-induced clonic convulsions; type: functional
Structure (SMILES),ED50 [1] [mg/kg],ED50 [2] [mg/kg],ED50 [3] [mg/kg],ED50 [4] [mg/kg],ED50 [5] [mg/kg],ED50 [6] [mg/kg],ED50 [7] [mg/kg],ED50 [8] [mg/kg],ED50 [9] [mg/kg],ED50 [10] [mg/kg]
Cc1nnc2n1-c1ccc(N)cc1C(c1ccccc1Cl)=NC2,> 50,> 50,0.7,> 50,30,> 50,0.9,> 50,4,2
CN(C)CCN(C)c1nnc2n1-c1ccc(Cl)cc1C(c1ccccc1)=NC2,> 50,> 50,12.5,> 50,40,> 50,42,> 50,> 50,30
CC1N=C(c2ccccc2)c2cc(Cl)ccc2-n2c1nnc2N1CCN(C)CC1 (stereo not given),> 50,4.4,0.7,8.8,29.7,50,2.6,> 50,4.4,3.1
FC(F)(F)c1nnc2n1-c1ccc(Cl)cc1C(c1ccccc1)=NC2,> 50,> 50,> 50,> 50,> 50,> 50,> 50,> 50,> 50,20
CN1CCN(c2nnc3n2-c2ccccc2C(c2ccccc2)=NC3)CC1,> 50,35.4,> 50,> 50,12.5,25,> 50,> 50,> 50,14.9
CC1N=C(c2ccccc2)c2cc(Cl)ccc2-n2c1nnc2N1CCOCC1 (stereo not given),> 50,10,0.7,20,> 50,> 50,3,> 50,3,0.4
CCN1CCN(c2nnc3n2-c2ccc(Cl)cc2C(c2ccccc2)=NC3)CC1,29.7,0.2,0.6,> 50,42,> 50,1.9,> 50,25,0.9
CC1N=C(c2ccccc2)c2cc(Cl)ccc2-n2c(Br)nnc21 (stereo not given),> 50,> 50,3.1,> 50,> 50,> 50,1.9,> 50,> 50,3.7
CCN1CCN(c2nnc3n2-c2ccccc2C(c2ccccc2Cl)=NC3)CC1,> 50,40,> 50,30,2,> 50,7,> 50,4,2
Nc1nnc2n1-c1ccc(Cl)cc1C(c1ccccc1)=NC2,> 50,> 50,2,> 50,9,> 50,20,> 50,> 50,14
OCc1nnc2n1-c1ccc(Cl)cc1C(c1ccccc1Cl)=NC2,> 50,> 50,0.01,> 50,7,> 50,0.02,> 50,0.06,0.045
Clc1ccc2c(c1)C(c1ccccc1)=NCc1nnc(N3CCOCC3)n1-2,35.4,35.4,4.4,> 50,7,40,3.1,> 50,> 50,2.6
Sc1nnc2n1-c1ccc(Cl)cc1C(c1ccccc1)=NC2,> 50,> 50,0.8,> 50,9,> 50,3,> 50,9,2.3
Clc1ccc2c(c1)C(c1ccccc1)=NCc1nnc(C(Cl)Cl)n1-2,> 50,> 50,3,> 50,> 50,> 50,10,> 50,> 50,8
CN1CCN(c2nnc3n2-c2ccc(Cl)cc2C(c2ccccc2Cl)=NC3)CC1,> 50,4.4,0.035,35.4,3.1,> 50,0.06,> 50,0.011,0.03
Cc1nnc2n1-c1ccc(Br)cc1C(c1ccccc1)=NC2,> 50,> 50,0.8,> 50,20,20,0.5,> 50,2,0.6
CN1CCN(c2nnc3n2-c2ccc(Br)cc2C(c2ccccn2)=NC3)CC1,3.7,> 50,3.1,35.4,> 50,> 50,8.8,> 50,21,12.5
CCOCc1nnc2n1-c1ccc(Cl)cc1C(c1ccccc1)=NC2,> 50,> 50,0.9,> 50,40,> 50,3,> 50,10,1.4
Clc1ccc2c(c1)C(c1ccccc1)=NCc1nnc(N3CCCC3)n1-2,> 50,30,3,> 50,40,> 50,4,> 50,> 50,4.5
CC1N=C(c2ccccc2)c2cc(Cl)ccc2-n2cnnc21 (stereo not given),> 50,7.4,0.6,> 50,10.5,> 50,4.4,> 50,42,3.7
Clc1ccc2c(c1)C(c1ccccc1)=NCc1nnc(N3CCN(c4ccccc4)CC3)n1-2,> 50,> 50,> 50,> 50,> 50,> 50,> 50,> 50,> 50,> 50
COc1nnc2n1-c1ccc(Cl)cc1C(c1ccccc1)=NC2,> 50,> 50,0.1,> 50,10,> 50,0.5,> 50,> 50,0.14
Clc1ccc2c(c1)C(c1ccccc1Cl)=NCc1nnc(N3CCOCC3)n1-2,> 50,> 50,0.04,> 50,6,> 50,0.05,> 50,0.06,0.06
